# US5811074A, “Method of diagnosing pituitary dependent growth hormone deficiency” (University of South Florida, priority 1996, dated 1998)
# Where a SMILES comes first, the peptide text is derived from it. Where no end group is shown, it is not given here. [ ]: non-standard residue; d: D form.
# What was measured:
# GH secretion [1] = experiment: Pediatric study: sequential GHRP then GHRH bolus, and co-administration, serum GH by radioimmunoassay; type: in vivo, children; settings: for GH response to sequentially administered secretagogue: hypopituitary subject (atrophic, developmentally retarded pituitary gland), FIG. 4B
# Description: The protocol used in the pediatric study from which data presented below were collected involved the sequential administration of exogenous GHRP and exogenous GHRH as set forth in the present invention (Table 4; FIGS. 1A-1B). Briefly, each subject began testing at approximately 0900 h, one half hour after placement of an intravenous catheter. Two blood samples for basal concentrations of serum GH were drawn, and GHRP (1 μg/kg) was administered as a bolus. Blood samples were then drawn at five minute intervals for 20 minutes during which the GH secretory response occurred, and at longer intervals for about two hours thereafter.
# GHRH (1 μg/kg) was then administered as a bolus, when basal GH concentrations were again established. Blood samples were similarly collected after GHRH administration as they were following GHRP administration. GH concentrations in each serum was then determined by radioimmunoassay.
# The study population was composed of children with normal GH secretory function (serving as controls and normal baseline values) and those with GH secretory dysfunction of various clinical diagnoses. The purpose of evaluating different etiologies of GH secretory dysfunction was to validate the hypothesis that complementary endogenous GH secretagogues must be present for optimal expression of GHRP or GHRH stimulatory potential.
# GH release [2] = experiment: GHRP-6 activity in young rats with reduced endogenous GHRH (GHRH antiserum or α-methyl-p-tyrosine); type: in vivo
# Description: FIG. 2 is a dose response curve for GHRP-6 in rats pretreated with vehicle (triangles), α-methyl-p-tyrosine (circles), or GHRH antiserum (squares). Values represent means±SEM (8 rats per dose and treatment) in plasma collected 15 minutes after administration of GHRP-6.
# Young rats were passively immunized against endogenous GHRH or administered α-methyl-.rho.-tyrosine. If GHRH and the endogenous ligand of GHRP-6 are physiological co-agonists of GH secretion in the young rat, then removal of one or the other should be expressed as attenuated activity of its co-agonist when administered alone. Passive immunization which inactivates GHRH with neutralizing antibodies, or α-methyl-p-tyrosine (L form) which blocks stimulation of hypothalamic GHRH neurons were used to remove or reduce concentrations of endogenous GHRH in the young experimental animals. These treatments were intended to simulate the aged condition in which concentrations of GHRH and GHRH mRNA are low (De Gennaro Collona et al., 1989; Morimoto et al., 1988). Afterwards, GHRP-6 was administered to test and compare its efficacy with that in old rats (Walker et al., 1991).
# Presumably, naturally occurring decrements in endogenous GHRH during aging contributed to the blunted response to GHRP-6 that applicants observed (Walker et al., 1991). […]
# GH secretion [3] = experiment: Repeated injections of GHRH preceded by GHRP in the same individual, peak serum GH; type: in vivo; settings: repeated tests in same individual
# Description: The timing between the sequential, independent challenges must be between two and four hours with the preferred embodiment at two hours (120 minutes after GHRX administration). Blood is drawn at regular intervals for up to two hours after the administration of each secretagogue, generally every 5 minutes for the first 20 minutes after administration and 10-15 minute intervals thereafter for the remaining two hours. From these blood samples the peak GH response is measured thereby determining if GH level changes after each administration has occurred.
# Relevant to using GHRH and GHRP as diagnostic agents is the fact that GHRP eliminates the endogenous factors causing variability in the GHRH response. Administration before GHRH creates an episode of GH secretion that "resets" the sensitivity of the GH neurosecretory axis to stimulation by GHRH, so that at the time of GHRH administration, uniform baseline conditions in the subject have been achieved. This then puts the GH neurosecretory axis in a uniform state of readiness for GHRH so that a subsequent relatively stable and constant episode of GHRH-stimulated GH secretion results (Table 3). This GHRH stimulated GH secretory episode can then be compared with the stable episode of GHRP-stimulated GH secretion that preceded it as a basis for the diagnostic test of the present invention.
# GH release [4] = settings: rats; Bercu et al., 1992a; cited from earlier work
# GH release [5] = experiment: GH release after GHRP-6 alone and in combination with GHRH in old versus young rats; type: in vivo, Fischer 344 rats; settings: GHRP-6 alone, old vs young rats
# From the text: Fischer 344 rats (Charles River), both male and female, were used. Young animals are defined as sexually mature between 2 and 7 months of age. Old animals are defined as those over 16 months of age.
# GHRH-efficacy has been reported to be reduced 50 to 75% in old rats (Sonntag et al., 1983); therefore, applicants tested the effect of GHRP-6 alone and in combination with GHRH on GH release in old rats. Peak plasma GH concentrations resulting from GHRP-6 administration in old rats were approximately 60% less than in young rats. […] Since target organs sometimes become hyperresponsive when tonic and/or phasic stimulation decreases, than one would expect exaggerated responses to provocative exogenous stimuli under experimental conditions. GH hypersecretion observed in naive, old rats administered a single bolus of GHRH and GHRP (Walker et al., 1991) provides support for the hypothesis that deficits in stimulated GH secretion in aged rats were due to insufficient signals or inappropriately transduced GH releasing stimuli.
# GH secretion [6] = experiment: Provocative challenge with a GH secretagogue administered alone, peak serum GH; type: in vivo
# Description: The diagnostic potential of GHRX and GHRH, with GHRP and growth hormone releasing hormone respectively the preferred compounds, for determining the etiology of GH secretory deficiency is profoundly affected by the sequence in which the secretagogues are administered. When GHRH is administered alone, the GH secretory response it elicits is extremely variable and is poorly dose related (Table 1).
# On the other hand, the response to GHRP administered alone is not variable (Table 2). The minimal variability of the GHRP response is presumed to result from its partial action as a somatostatin […].
# The growth hormone levels in the blood of the child or adult can be measured by any well known procedures, e.g., using an immunoradiometric assay as described by Bowers et al. (1990) or any other contemporary, scientifically accepted method.
# pituitary GHRH receptor = molecular target: T1, pituitary GHRH receptor (Rattus norvegicus, UniProt Q02644); experiment: Effect of GHRH receptor antagonist on GH release in response to GHRP-6 or morphine in young rats; type: in vivo
# T1 construct: tissue Charles River; host or cells: living Fischer 344 rats (pituitary, in vivo)
# T1 sequence (Q02644 23-464): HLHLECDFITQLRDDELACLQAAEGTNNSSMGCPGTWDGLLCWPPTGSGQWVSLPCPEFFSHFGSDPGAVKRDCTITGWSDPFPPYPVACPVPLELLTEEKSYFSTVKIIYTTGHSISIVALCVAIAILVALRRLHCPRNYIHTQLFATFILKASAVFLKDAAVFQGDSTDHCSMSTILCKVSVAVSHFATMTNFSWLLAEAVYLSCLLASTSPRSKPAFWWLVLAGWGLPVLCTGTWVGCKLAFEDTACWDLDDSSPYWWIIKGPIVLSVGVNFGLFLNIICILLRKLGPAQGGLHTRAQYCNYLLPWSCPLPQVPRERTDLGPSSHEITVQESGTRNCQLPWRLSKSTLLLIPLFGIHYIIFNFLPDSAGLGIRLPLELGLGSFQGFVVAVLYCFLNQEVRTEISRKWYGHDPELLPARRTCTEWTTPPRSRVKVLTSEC
# Description: FIGS. 3A-3B are dose response curves showing the effect of [N-Ac-Tyr^1,D-Arg^2 ]-GRF 1-29 amide, a GHRHreceptor antagonist, on GH release in response to GHRP-6 (30 μg/kg, closed symbols, FIG. 3A) or morphine (1.5 mg/kg, open symbols, FIG. 3B). The GHRH receptor antagonist was administered in doses of 0 (circle), 5 (square), 50 (triangle), or 150 (diamond) μg/kg. Values represent mean±SEM 8 rats per group.
# The second possible cause of age-related decrements in GH secretion applicants considered was that deterioration in GH secretagogue signal transduction at the pituitary level contributes to the progressive insensitivity to provocative stimuli. In a test of this hypothesis, applicants examined GH secretory responses to GHRP-6 in young rats administered [N-Ac-Tyr^1, D-Arg^2 ]-GRF 1-29, an antagonist to the pituitary GHRH receptor.
# However, 150 μg/kg of [N-Ac-Tyr^1, D-Arg^2 ]-GRF 1-29 amide potentiated GHRP-6 activity, presumably due to partial agonist activity of the GHRH receptor […] at the higher dose (Bercu et al., 1992a).
compound,measurement,setting,value
"C[C@H](NC(=O)[C@@H](Cc1c[nH]c2ccccc12)NC(=O)[C@@H](N)Cc1c[nH]cn1)C(=O)N[C@@H](Cc1c[nH]c2ccccc12)C(=O)N[C@H](Cc1ccccc1)C(=O)N[C@@H](CCCCN)C(N)=O [GHRP-6, His-D-Trp-Ala-Trp-D-Phe-Lys-NH2] (H-H[dW]AW[dF]K-NH2)",GHRP:GHRH ratio,GH secretion [1]; children after radiation of the head (group),< 1
same,GHRP:GHRH ratio,GH secretion [1]; children responding poorly to both secretagogues but better to GHRP (group),> 3
same,GHRP to GHRH ratio,"GH secretion [1]; constitutional delay subject, FIG. 4C",3.1
same,"Peak response, serum GH","GH secretion [1]; constitutional delay subject, FIG. 4C, GHRP-6 1 μg/kg",13.5 ng/mL
same,GH response to sequentially administered secretagogue,GH secretion [1],responded to neither
same,GHRP to GHRH ratio,"GH secretion [1]; irradiated subject, FIG. 4D",0.38
same,"Peak response, serum GH","GH secretion [1]; irradiated subject, FIG. 4D, GHRP-6 1 μg/kg",18.9 ng/mL
same,GHRP-6 activity (plasma GH 15 minutes after GHRP-6),GH release [2]; young female rats pretreated with GHRH antiserum,significantly attenuated
same,GHRP-6 activity (plasma GH 15 minutes after GHRP-6),GH release [2]; young female rats pretreated with α-methyl-p-tyrosine,significantly attenuated
same,Peak Serum GH x ± SEM,GH secretion [3]; GHRP 1.0 μg/kg given first,69.31 ± 4.21 ng/mL
same,Reduction of GHRP-6 activity by passive immunization against endogenous GHRH,GH release [4],approximately 90%
same,"Peak plasma GH concentration in old rats, less than in young rats",GH release [5],approximately 60%
same,Peak Serum GH x ± SEM,"GH secretion [6]; GHRP alone, 0.1 μg/kg",17.51 ± 1.91 ng/mL
same,Peak Serum GH x ± SEM,"GH secretion [6]; GHRP alone, 0.5 μg/kg",41.31 ± 3.97 ng/mL
same,Peak Serum GH x ± SEM,"GH secretion [6]; GHRP alone, 1.0 μg/kg",67.88 ± 6.1 ng/mL
same,Peak Serum GH x ± SEM,"GH secretion [6]; GHRP alone, 1.5 μg/kg",81.60 ± 5.88 ng/mL
"GHRH: naturally occurring GH releasing hormone (growth hormone releasing hormone) (YADAIFTNSYRKVLGQLSARKLLQDIMSRQQGESNQERGARARL; ends and bridges not checked; UniProt P01286 32-75, looked up)","Peak response, serum GH","GH secretion [1]; constitutional delay subject, FIG. 4C, GHRH 1 μg/kg",4.4 ng/mL
same,GH response to sequentially administered secretagogue,GH secretion [1],responded to neither
same,"Peak response, serum GH","GH secretion [1]; irradiated subject, FIG. 4D, GHRH 1 μg/kg",49.4 ng/mL
same,Peak Serum GH x ± SEM,GH secretion [3]; GHRH 1.0 μg/kg preceded by GHRP,32.66 ± 3.33 ng/mL
same,Peak Serum GH x ± SEM,"GH secretion [6]; GHRH alone, 0.1 μg/kg",9.46 ± 3.71 ng/mL
same,Peak Serum GH x ± SEM,"GH secretion [6]; GHRH alone, 0.33 μg/kg",16.45 ± 8.11 ng/mL
same,Peak Serum GH x ± SEM,"GH secretion [6]; GHRH alone, 1.0 μg/kg",13.54 ± 6.51 ng/mL
same,Peak Serum GH x ± SEM,"GH secretion [6]; GHRH alone, 3.3 μg/kg",21.80 ± 6.78 ng/mL
same,Peak Serum GH x ± SEM,"GH secretion [6]; GHRH alone, 10.0 μg/kg",17.41 ± 4.67 ng/mL
"[N-Ac-Tyr^1,D-Arg^2 ]-GRF 1-29 amide [[N-Ac-Tyr^1, D-Arg^2]-GRF 1-29 amide]",GHRP-6 stimulated GH secretion as a function of time,"pituitary GHRH receptor; 50 μg/kg antagonist, P<0.05, FIG. 3A",significantly reduced
same,GHRP-6 stimulated GH secretion as a function of time,"pituitary GHRH receptor; 150 μg/kg antagonist, P<0.01, FIG. 3A",significantly increased
same,Effect on GHRP-6 activity,"pituitary GHRH receptor; 150 μg/kg, GHRP-6 30 μg/kg",potentiated
same,Morphine-stimulated GH secretion,"pituitary GHRH receptor; 50 and 150 μg/kg antagonist, P<0.05, morphine 1.5 mg/kg, FIG. 3B",significantly reduced
same,Effect on GHRP activity,"pituitary GHRH receptor; pre-administration of 5 to 50 μg/kg, GHRP-6 30 μg/kg",attenuated
